Measurements reported in the supplement of paper PMC10307832.

Legend:
Assay in all cases: relative viability (nuclei count vs DMSO), 5 days (fraction); higher = more cells survive
[1] = compound: CC(C)=CC[C@@H](O)C1=CC(=O)c2c(O)ccc(O)c2C1=O [Shikonin] + COc1cc2c(Oc3ccc(NC(=O)C4(C(=O)Nc5ccc(F)cc5)CC4)cc3F)ccnc2cc1OCCCN1CCOCC1 [Foretinib] (partner 0.25 µM)
How it was run: (§1)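 After 5 days of treatment, lung cancer cells in 1536-well plates were fixed and stained in a single step (final 0.05% Triton X-100, 1% formaldehyde, 1 ug/ml Hoechst) and their nuclei counted on 4× images. Treatment had been applied by pin tool the day after seeding as one drug alone or as a fixed anchor-drug dose with five library-drug doses (not always all listed) in √10 steps. Relative viability is the nuclei count of treated wells divided by that of vehicle wells, and values are medians of duplicate plates.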

[2] = compound: CC(C)=CC[C@@H](O)C1=CC(=O)c2c(O)ccc(O)c2C1=O [Shikonin] + CS(=O)(=O)N1CCN(Cc2cc3nc(-c4cccc5[nH]ncc45)nc(N4CCOCC4)c3s2)CC1 [Pictilisib] (partner 1 µM)
How it was run: as §1

[3] = compound: CC(C)N(CCCNC(=O)Nc1ccc(C(C)(C)C)cc1)C[C@H]1O[C@@H](n2ccc3c(N)ncnc32)[C@H](O)[C@@H]1O + Cc1cc(Nc2cc(N3CCN(C)CC3)nc(Sc3ccc(NC(=O)C4CC4)cc3)n2)n[nH]1 [Tozasertib] (partner 0.1 µM)
How it was run: as §1

[4] = compound: CC(C)N(CCCNC(=O)Nc1ccc(C(C)(C)C)cc1)C[C@H]1O[C@@H](n2ccc3c(N)ncnc32)[C@H](O)[C@@H]1O + O=C(c1cc(Cc2n[nH]c(=O)c3ccccc23)ccc1F)N1CCN(C(=O)C2CC2)CC1 [Olaparib] (partner 8 µM)
How it was run: as §1

| Cell Line | relative viability ([1]; first compound 0.01 µM) | relative viability ([1]; first compound 0.1 µM) | relative viability ([1]; first compound 0.3162 µM) | relative viability ([1]; first compound 1 µM) | relative viability ([2]; first compound 0.01 µM) | relative viability ([2]; first compound 0.1 µM) | relative viability ([2]; first compound 0.3162 µM) | relative viability ([2]; first compound 1 µM) | relative viability ([3]; first compound 0.08 µM) | relative viability ([3]; first compound 0.253 µM) | relative viability ([3]; first compound 0.8 µM) | relative viability ([3]; first compound 2.53 µM) | relative viability ([3]; first compound 8 µM) | relative viability ([4]; first compound 0.08 µM) | relative viability ([4]; first compound 0.253 µM) | relative viability ([4]; first compound 0.8 µM) | relative viability ([4]; first compound 2.53 µM) | relative viability ([4]; first compound 8 µM) |
| --- | --- | --- | --- | --- | --- | --- | --- | --- | --- | --- | --- | --- | --- | --- | --- | --- | --- | --- |
| NCI-H2023 | 0.921 | 0.863 | 0.887 | 0.931 | 0.225 | 0.31 | 0.223 | 0.257 | 0.437 | 0.38 | 0.345 | 0.375 | 0.338 | 0.491 | 0.458 | 0.458 | 0.446 | 0.43 |
| HCC-15 | 1.05 | 1.02 | 1.12 | 0.986 | 0.699 | 0.789 | 0.732 | 0.832 | 0.354 | 0.542 | 0.369 | 0.401 | 0.337 | 0.669 | 0.754 | 0.702 | 0.758 | 0.709 |
| COR-L23 | 1.05 | 0.813 | 1.03 | 0.988 | 1.09 | 0.831 | 0.889 | 0.741 | 0.208 | 0.195 | 0.256 | 0.23 | 0.201 | 0.297 | 0.376 | 0.365 | 0.347 | 0.29 |
| HCC-78 | 0.562 | 0.621 | 0.614 | 0.627 | 0.185 | 0.234 | 0.188 | 0.249 | 0.371 | 0.383 | 0.351 | 0.366 | 0.484 | 0.885 | 0.734 | 0.691 | 0.792 | 0.804 |
| PC-14 | 0.914 | 1 | 1.15 | 1.09 | 0.817 | – | 0.641 | 0.68 | 0.529 | 0.598 | 0.598 | 0.6 | 0.551 | 0.303 | 0.249 | 0.281 | 0.257 | 0.247 |
| NCI-H2126 | 1.06 | 1.2 | 1.18 | 1.43 | 0.508 | 0.5 | 0.496 | 0.553 | 0.844 | 0.834 | 0.812 | 0.843 | 0.786 | 0.873 | 0.932 | 0.901 | 0.883 | 0.778 |
| BEN | 0.576 | 0.744 | 0.839 | 0.848 | 0.642 | 0.596 | 0.682 | 0.612 | 0.49 | 0.642 | 0.485 | 0.532 | 0.452 | 0.974 | 1.25 | 1.24 | 1.03 | 1.02 |
| LCLC-103H | 0.875 | 0.847 | 0.953 | 0.942 | 0.503 | 0.708 | 0.677 | 0.676 | 0.603 | 0.519 | 0.432 | 0.516 | 0.478 | 0.734 | 0.697 | 0.699 | 0.77 | 0.775 |
| EKVX | 0.751 | 0.646 | 1.05 | 0.762 | 0.46 | 0.451 | 0.496 | 0.448 | 0.449 | 0.347 | 0.373 | 0.434 | 0.388 | 0.818 | 0.83 | 0.67 | 0.803 | 0.752 |
| LXF-289 | 0.987 | 1.02 | 0.998 | 0.972 | 0.868 | 0.784 | 0.799 | 0.775 | 0.167 | 0.199 | 0.131 | 0.176 | 0.174 | 1.02 | 1.08 | 1.1 | 1.1 | 0.991 |
| ABC-1 | 1.14 | 0.993 | 0.927 | 1.04 | 0.718 | 0.776 | 0.538 | 0.407 | 0.183 | 0.174 | – | 0.183 | 0.178 | 0.69 | 0.745 | – | 1.47 | 0.8 |
| NCI-H727 | 0.864 | 0.837 | 0.905 | 0.883 | 0.326 | 0.353 | 0.311 | 0.431 | 0.667 | 0.656 | 0.697 | 0.621 | 0.642 | 0.587 | 0.676 | 0.673 | 0.759 | 0.647 |
| NCI-H1650 | 1.18 | 1.07 | 0.985 | 1.32 | 0.682 | 0.684 | 0.481 | 0.571 | 0.483 | 0.358 | – | 0.398 | 0.439 | 0.662 | 0.922 | 0.805 | 0.642 | 0.754 |
| NCI-H2087 | 1.04 | 1.07 | 1.19 | 1.1 | 0.767 | 1.05 | 0.843 | 0.861 | 0.243 | 0.252 | 0.243 | 0.259 | 0.207 | 0.599 | 0.694 | 0.553 | 0.667 | 0.581 |
| NCI-H1793 | 0.783 | 0.737 | 0.792 | 0.59 | 0.359 | 0.251 | 0.241 | 0.304 | 0.345 | – | 0.356 | 0.33 | 0.386 | 0.808 | – | 0.864 | 0.848 | 0.739 |
| LC-2-ad | 0.869 | 0.989 | 1.04 | 1.01 | 0.336 | 0.506 | 0.469 | 0.408 | 0.475 | 0.432 | 0.442 | 0.485 | 0.41 | 0.67 | 0.717 | 0.715 | 0.699 | 0.626 |
| COR-L 105 | 1.44 | 1.31 | 1.34 | 1.33 | 0.428 | 0.358 | 0.438 | 0.336 | 0.357 | 0.357 | 0.331 | 0.336 | 0.316 | 0.678 | 0.724 | 0.702 | 0.652 | 0.649 |
| NCI-H1355 | 1.03 | 1.16 | 1.04 | 1.04 | 0.407 | 0.498 | 0.408 | 0.445 | 0.581 | 0.536 | 0.574 | 0.501 | 0.55 | 0.695 | 0.776 | 0.667 | 0.754 | 0.716 |
